How the values were obtained:
Assay type in all cases: in vivo
Tygress tomato plants [1] = test: Foliar nutrient concentration 2 weeks after treatment, greenhouse tomato (Examples 4-6); conditions: Mn 1.0 lb/acre
Description: (§1) The following experiments were performed in a green house during the fall of 2008 and spring of 2009 at GCREC, Balm, University of Florida. Crop set-up, procedures and variables were as follows.
(§2) Transplants of Tygress' tomato plants were planted in 2-gallon pots filled with commercial planting medium with nutrient concentration of Fe, Zn, Mn, Cu being negligible and insufficient for crop growth. Irrigation and non-micronutrient fertilizer were provided daily through microsprinklers at recommended rates for tomato production in Florida. No pesticides were used. Treatments were as described in Tables 4, 5 and 6 below.
(§3) Treatments were applied at 5 WAT (weeks after transplanting) using a water volume of 200 mL/plant. A non-ionic surfactant was added. Foliar tissue analysis was performed at 3 and 7 WAT on the non-applied newest leaves. The concentrations of N, P, K, Mg, Ca, B, Zn, Mn, Fe, and Cu in the foliar tissue were determined from foliar analysis by a commercial laboratory at 2 weeks before treatment and again at 2 weeks after treatment.
(§4) Deionized water was used for foliar applications, and other nutrients were applied as appropriate under non-limiting conditions. Marketable fruit were collected three times during the growing season, starting at 10 WAT (5 weeks after the initial treatment). Tomato fruit was graded as extra-large, large and medium. Non-marketable fruit were harvested and number and weight recorded but not sized.
(§5) Experimental design was a randomized complete block design with 6 replications. Data were analyzed using a general linear model, and means were separated using an LSD test at the 5% significance level.

[2] = test system: soybean plants (Asgrow 1102); test: ICP-MS micronutrient content of soybean trifoliates (Examples 11-12); set-up: Micronutrient content from ICP-MS analysis: Mn: unit not given here; conditions: for Micronutrient content from ICP-MS analysis: Fe: in ppm (unit assumed)
Description: The following experiments were performed on soybean plants growing in open-field plots during the summer and fall of 2008 at two production fields in West Central Minnesota. […] Trial design was a randomized complete block with 4 replications. Each plot measured 10' by 30' and consisted of five 22'' rows. Although all five rows of each plot were treated, only the center three rows (25' in length) of each plot were machine harvested. The two fields selected for these studies had historical Iron Deficiency Chlorosis (IDC) issues. The two field sites were planted by farmers with elite Roundup Ready commodity type soybean varieties with IDC tolerance (Asgrow 1102, Monsanto Corp.). […] BIOX-M was applied at a rate of 1.12 kg Mn/ha. […] All V4 treatments were applied in 10 gallons per acre of water with a backpack sprayer with a hand boom designed to “band” apply product directly to the plant row. Three nozzles with ConeJet TXVS-2 tips were oriented on either side and over the top of each row. This maximized the applied product to the plant tissue itself and minimized application of product to the soil surface. […] The V6 treatments (where applicable) were applied in 20 gallons per acre of water to increase the suspension of the BIOX products. […] The harvested plants were dried, ground, and subjected to Inductively Coupled Plasma-Mass Spectrometry (ICP-MS) analysis to determine plant micronutrient content.

[3] = test system: soybean plants (Asgrow 1102); test: Visual greenness ratings (1-5 scale) of soybean plants, open-field (Examples 11-12)
Description: The following experiments were performed on soybean plants growing in open-field plots during the summer and fall of 2008 at two production fields in West Central Minnesota. […] Trial design was a randomized complete block with 4 replications. Each plot measured 10' by 30' and consisted of five 22'' rows. Although all five rows of each plot were treated, only the center three rows (25' in length) of each plot were machine harvested. The two fields selected for these studies had historical Iron Deficiency Chlorosis (IDC) issues. The two field sites were planted by farmers with elite Roundup Ready commodity type soybean varieties with IDC tolerance (Asgrow 1102, Monsanto Corp.). […] BIOX-M was applied at a rate of 1.12 kg Mn/ha. […] All V4 treatments were applied in 10 gallons per acre of water with a backpack sprayer with a hand boom designed to “band” apply product directly to the plant row. Three nozzles with ConeJet TXVS-2 tips were oriented on either side and over the top of each row. This maximized the applied product to the plant tissue itself and minimized application of product to the soil surface. […] The V6 treatments (where applicable) were applied in 20 gallons per acre of water to increase the suspension of the BIOX products.

[4] = test system: soybean plants (Asgrow 1102); test: Soybean seed protein and oil content (Examples 11-12); conditions: in %
Description: (§6) The following experiments were performed on soybean plants growing in open-field plots during the summer and fall of 2008 at two production fields in West Central Minnesota. […] Trial design was a randomized complete block with 4 replications. Each plot measured 10' by 30' and consisted of five 22'' rows. Although all five rows of each plot were treated, only the center three rows (25' in length) of each plot were machine harvested. The two fields selected for these studies had historical Iron Deficiency Chlorosis (IDC) issues. The two field sites were planted by farmers with elite Roundup Ready commodity type soybean varieties with IDC tolerance (Asgrow 1102, Monsanto Corp.). […] BIOX-M was applied at a rate of 1.12 kg Mn/ha. […] All V4 treatments were applied in 10 gallons per acre of water with a backpack sprayer with a hand boom designed to “band” apply product directly to the plant row. Three nozzles with ConeJet TXVS-2 tips were oriented on either side and over the top of each row. This maximized the applied product to the plant tissue itself and minimized application of product to the soil surface. […] The V6 treatments (where applicable) were applied in 20 gallons per acre of water to increase the suspension of the BIOX products. Soybean seed was harvested after soybean maturity was reached (3 October at […], and 17 Oct. 2008 at Foxhome) and seed yields for each experimental treatment group were determined. In addition, seed samples from each treatment were dried to 13% moisture content, then analyzed for protein and oil content.

[5] = test system: soybean plants (Asgrow 1102); test: Soybean seed yield (Examples 11-12)
Description: as §6

Tygress tomato plants [6] = test: Yields of tomato fruits, greenhouse (Examples 4-6)
Description: as §1, §2, §3, §4, §5

O=S(=O)([O-])[O-].[Mn+2] [BIOX-INM, manganese sulfate, reference compound]
B concentration in tomato leaves (Tygress tomato plants [1]; 2 weeks after Mn treatment): 25 ppm | Ca concentration in tomato leaves (Tygress tomato plants [1]; 2 weeks after Mn treatment): 0.6% | Cu concentration in tomato leaves (Tygress tomato plants [1]; 2 weeks after Mn treatment): 5 ppm | Fe concentration in tomato leaves (Tygress tomato plants [1]; 2 weeks after Mn treatment): 117 ppm | K concentration in tomato leaves (Tygress tomato plants [1]; 2 weeks after Mn treatment): 3.2% | Mg concentration in tomato leaves (Tygress tomato plants [1]; 2 weeks after Mn treatment): 0.3% | N concentration in tomato leaves (Tygress tomato plants [1]; 2 weeks after Mn treatment): 3.4% | P concentration in tomato leaves (Tygress tomato plants [1]; 2 weeks after Mn treatment): 0.6% | Zn concentration in tomato leaves (Tygress tomato plants [1]; 2 weeks after Mn treatment): 34 ppm | Foliar Mn concentration (Tygress tomato plants [1]; tomato leaves 2 weeks after Mn treatment): 80.9 a ppm | Micronutrient content from ICP-MS analysis: Mn ([2]; 3.27 kg/ha, V4, Foxhome): 86.58 | Micronutrient content from ICP-MS analysis: Fe ([2]; 3.27 kg/ha, V4, Foxhome): 87.35 | Micronutrient content from ICP-MS analysis: Mn ([2]; 3.27 kg/ha, V4, Renville): 83.90 | Micronutrient content from ICP-MS analysis: Fe ([2]; 3.27 kg/ha, V4, Renville): 101.17 | Mean visual greenness scores (1-5) ([3]; 3.27 kg/ha, V4, Jul. 15, 2008 Rating, Foxhome): 3.0 | Mean visual greenness scores (1-5) ([3]; 3.27 kg/ha, V4, Jul. 15, 2008 Rating, Renville): 2.4 | Mean visual greenness scores (1-5) ([3]; 3.27 kg/ha, V4, Jul. 29, 2008 Rating, Foxhome): 1.5 A, B, C | Mean visual greenness scores (1-5) ([3]; 3.27 kg/ha, V4, Jul. 29, 2008 Rating, Renville): 1.0 | Oil content (13% moisture) ([4]; 3.27 kg/ha, V4, Foxhome): 18.32 | Protein content (13% moisture) ([4]; 3.27 kg/ha, V4, Foxhome): 32.63 | Oil content (13% moisture) ([4]; 3.27 kg/ha, V4, Renville): 19.80 | Protein content (13% moisture) ([4]; 3.27 kg/ha, V4, Renville): 32.36 | Yield ([5]; 3.27 kg/ha, V4, Foxhome): 45.05 Bu/A | Yield ([5]; 3.27 kg/ha, V4, Renville): 27.13 Bu/A | Marketable tomato yield compared with non-treated control (in words) (Tygress tomato plants [6]; BIOX-M at 1.23 lb/acre or more, BIOX-EDM at 2.0 lb/acre, Mn-sulfate at 1.0 lb/acre): significantly higher than the non-treated control | Marketable yield (Tygress tomato plants [6]; Mn 1.0 lb/acre, tomato fruits): 4.0 a lb/plant

EDDHA chelated iron [BIOX-EDDI, reference compound]
Micronutrient content from ICP-MS analysis: Mn ([2]; 2.23 kg/ha, V4, V6, Foxhome): 66.03 | Micronutrient content from ICP-MS analysis: Fe ([2]; 2.23 kg/ha, V4, V6, Foxhome): 86.15 | Micronutrient content from ICP-MS analysis: Mn ([2]; 2.23 kg/ha, V4, V6, Renville): 91.09 | Micronutrient content from ICP-MS analysis: Fe ([2]; 2.23 kg/ha, V4, V6, Renville): 99.56 | Micronutrient content from ICP-MS analysis: Mn ([2]; 2.23 kg/ha, V4, Foxhome): 91.22 | Micronutrient content from ICP-MS analysis: Fe ([2]; 2.23 kg/ha, V4, Foxhome): 82.37 | Micronutrient content from ICP-MS analysis: Mn ([2]; 2.23 kg/ha, V4, Renville): 86.45 | Micronutrient content from ICP-MS analysis: Fe ([2]; 2.23 kg/ha, V4, Renville): 96.89 | Mean visual greenness scores (1-5) ([3]; 2.23 kg/ha, V4, V6, Jul. 15, 2008 Rating, Foxhome): 2.1 | Mean visual greenness scores (1-5) ([3]; 2.23 kg/ha, V4, V6, Jul. 15, 2008 Rating, Renville): 2.9 | Mean visual greenness scores (1-5) ([3]; 2.23 kg/ha, V4, V6, Jul. 29, 2008 Rating, Foxhome): 1.0 C | Mean visual greenness scores (1-5) ([3]; 2.23 kg/ha, V4, V6, Jul. 29, 2008 Rating, Renville): 1.4 | Mean visual greenness scores (1-5) ([3]; 2.23 kg/ha, V4, Jul. 15, 2008 Rating, Foxhome): 2.8 | Mean visual greenness scores (1-5) ([3]; 2.23 kg/ha, V4, Jul. 15, 2008 Rating, Renville): 2.6 | Mean visual greenness scores (1-5) ([3]; 2.23 kg/ha, V4, Jul. 29, 2008 Rating, Foxhome): 2.0 A | Mean visual greenness scores (1-5) ([3]; 2.23 kg/ha, V4, Jul. 29, 2008 Rating, Renville): 1.3 | Greenness of soybean plants compared to control, statement ([3]; BIOX-EDDI applied at V4 only, Foxhome site, 29 July rating): not when applied at V4 only | Oil content (13% moisture) ([4]; 2.23 kg/ha, V4, V6, Foxhome): 18.56 | Protein content (13% moisture) ([4]; 2.23 kg/ha, V4, V6, Foxhome): 32.58 | Oil content (13% moisture) ([4]; 2.23 kg/ha, V4, V6, Renville): 19.97 | Protein content (13% moisture) ([4]; 2.23 kg/ha, V4, V6, Renville): 31.97 | Oil content (13% moisture) ([4]; 2.23 kg/ha, V4, Foxhome): 18.41 | Protein content (13% moisture) ([4]; 2.23 kg/ha, V4, Foxhome): 32.56 | Oil content (13% moisture) ([4]; 2.23 kg/ha, V4, Renville): 20.22 | Protein content (13% moisture) ([4]; 2.23 kg/ha, V4, Renville): 32.14 | Yield ([5]; 2.23 kg/ha, V4, V6, Foxhome): 45.28 Bu/A | Yield ([5]; 2.23 kg/ha, V4, V6, Renville): 24.15 Bu/A | Yield ([5]; 2.23 kg/ha, V4, Foxhome): 38.98 Bu/A | Yield ([5]; 2.23 kg/ha, V4, Renville): 27.19 Bu/A
